As usually defined, the inhibition is the change of the read-out against control, counted positive when it falls. The low end stands for a weak effect, the high end for a strong effect. For orientation: IC50 means the concentration needed to halve the response being measured. Lower therefore signals inhibition by little substance.

Assay [1] has as its target T1, Tyrosine-protein phosphatase non-receptor type 1 (Homo sapiens) (UniProt P18031).
T1 sequence (whole entry): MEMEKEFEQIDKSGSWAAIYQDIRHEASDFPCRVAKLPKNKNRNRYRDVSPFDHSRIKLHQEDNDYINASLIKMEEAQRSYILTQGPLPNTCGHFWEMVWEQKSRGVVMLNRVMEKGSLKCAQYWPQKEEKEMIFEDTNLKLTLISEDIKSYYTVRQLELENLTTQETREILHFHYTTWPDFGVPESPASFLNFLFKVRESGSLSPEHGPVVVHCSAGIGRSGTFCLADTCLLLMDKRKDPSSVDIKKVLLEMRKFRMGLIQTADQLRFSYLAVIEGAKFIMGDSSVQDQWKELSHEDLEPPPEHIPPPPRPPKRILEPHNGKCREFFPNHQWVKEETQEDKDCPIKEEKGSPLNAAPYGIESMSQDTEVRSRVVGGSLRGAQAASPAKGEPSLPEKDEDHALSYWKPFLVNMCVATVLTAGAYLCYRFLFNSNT
The assay can be described thus: Inhibition of PTP1B (unknown origin) at 20 ug/ml using pNPP as substrate incubated for 30 mins by ELISA relative to control.

Assay [2] has as its target T2, Tyrosine-protein phosphatase non-receptor type 1 (Homo sapiens, UniProt P18031).
T2 sequence (P18031 whole entry): T1 sequence (whole entry)
Description: Inhibition of PTP1B (unknown origin) using pNPP as substrate incubated for 30 mins by ELISA. A general note: An ELISA detects its analyte on a solid surface through an enzyme-linked reagent.

Each structure is given as a SMILES string.

In turn, `C/C1=C/C[C@@H]2[C@H](CC2(C)C)[C@@]2(CC[C@H]1O)C[C@H](c1ccccc1)c1c(O)c(C=O)c(O)c(C=O)c1O2` had an inhibition in assay [1] above 96%. The molecule further came in with an IC50 in assay [2] of 11.9 µM.
Take `C=C1CC[C@@H]2[C@H]([C@@H]3Oc4c(C=O)c(O)c(C=O)c(O)c4[C@H](c4ccccc4)[C@@]3(C)CC[C@@H]1O)C2(C)C`: the inhibition in assay [1] is above 96%. For the same molecule, the IC50 in assay [2] worked out at 22.8 µM.
The molecule `C=C1CC[C@@H]2[C@H](CC2(C)C)[C@@]2(CC[C@H]1O)C[C@H](c1ccccc1)c1c(O)c(C=O)c(O)c(C=O)c1O2` returned an inhibition in assay [1] above 96%. Also, inhibition in assay [2] was half-maximal at 4.7 µM (IC50).
Molecule `CC(C)[C@@H]1CC[C@@H](C)[C@]23C[C@@H]4[C@H](c5ccccc5)c5c(O)c(C=O)c(O)c(C=O)c5O[C@]4(C)[C@@H](O)[C@]12O3` came in with an inhibition in assay [1] above 96%. In assay [2], this molecule returned an IC50 of 10.7 µM.
Taken in the same sequence, the figures for `C=C1CC[C@@H]2[C@H]([C@@H]3Oc4c(C=O)c(O)c(C=O)c(O)c4[C@H](c4ccccc4)[C@@]3(C)CC[C@H]1O)C2(C)C` were above 96% and 22.8 µM.
In turn, `CC(C)[C@@H]1CC[C@@H](C)[C@]2(O)C[C@@H]3[C@H](c4ccccc4)c4c(O)c(C=O)c(O)c(C=O)c4O[C@]3(C)C=C12` came in with an inhibition in assay [1] above 96%. The midpoint of inhibition in assay [2], the IC50, lay at 18.9 µM.
Molecule `C=C1CC[C@@H]2[C@H](CC2(C)C)[C@@]2(CC[C@@H]1O)C[C@H](c1ccccc1)c1c(O)c(C=O)c(O)c(C=O)c1O2` displayed an inhibition in assay [1] above 96%. The molecule also gave an IC50 in assay [2] of 11 µM.
Turning to `CC(C)[C@@H]1CC[C@@H](C)[C@H]2C[C@]34O[C@H]([C@@]21O)[C@@]3(C)Oc1c(C=O)c(O)c(C=O)c(O)c1[C@H]4c1ccccc1`, the inhibition in assay [1] is above 96%. The same molecule yielded an IC50 in assay [2] of 19.1 µM.
Taken in the same sequence, the figures for `C/C1=C/C[C@@H]2[C@H]([C@@H]3Oc4c(C=O)c(O)c(C=O)c(O)c4[C@H](c4ccccc4)[C@@]3(C)CC[C@@H]1O)C2(C)C` were above 96% and 9.2 µM.
`CC(C)[C@@H]1CC[C@@H](C)[C@H]2C[C@@]3(O)[C@H](c4ccccc4)c4c(O)c(C=O)c(O)c(C=O)c4O[C@]3(C)C=C12`: the inhibition in assay [1] is above 96%. In assay [2], this molecule came in with an IC50 of 6.2 µM.

The record behind these values is ChEMBL document CHEMBL4414657, “Psiguadiols A-J, Rearranged Meroterpenoids as Potent PTP1B Inhibitors from Psidium guajava” (J Nat Prod, 2019).
